Experimental data reported in patent US8377981B2, “CBI derivatives subject to reductive activation” (The Scripps Research Institute, priority 2007, dated 2013).
Read-outs that look alike come from different tables or passages of the source.

Experiments:
[1] = tested on: H596 (mitomycin-resistant, lacks DT-Diaphorase) non small cell lung cancer (NSCLC) cell line; assay: Cytotoxic activity, H596 cell line; assay type: cell-based
Experimental: (§1) The O-amino phenol derivatives bearing the N—O prodrug linkages and the various N-acyl substituents were assayed for cytotoxic activity alongside the parent drugs CBI-TMI (2) (Boger, D. L.; Yun, W. J. Am. Chem. Soc. 1994, 116, 7996) and mitomycin C (Boger, D. L.; et al. Bioorg. Med. Chem. Lett. 1991, 1, 115; Boger, D. L.; et al. Bioorg. Med. Chem. 1995, 3, 1429) as well as the two control standards 9 and 10 incapable of free phenol release. Three cell lines were examined including a standard L1210 cell line (mouse leukemia) as well as the mitomycin-sensitive (H460, expresses high levels of DT-Diaphorase) and resistant (H596, lacks DT-Diaphorase) non small cell lung cancer (NSCLC) cell lines, with results shown in the Table below.

[2] = tested on: L1210 cell line (mouse leukemia); assay: Cytotoxic activity, L1210 cell line; assay type: cell-based
Experimental: as §1

[3] = tested on: H460 (mitomycin-sensitive, expresses high levels of DT-Diaphorase) non small cell lung cancer (NSCLC) cell line; assay: Cytotoxic activity, H460 cell line; assay type: cell-based
Experimental: as §1

[4] = tested on: L1210 murine leukemia implanted i.p. into DBA/2J mice; assay: In vivo antitumor activity, L1210 i.p. in DBA/2J mice (30% DMSO in 0.1% glucose); design: species or system mouse; conditions: for Surviving Mice: 365 days; for weight loss of treated animals: days 30-100, highest dosing
Source text: The prodrug 8 was examined for in vivo efficacy alongside the parent drug 3 in a standard antitumor model enlisting L1210 murine leukemia implanted i.p. into DBA/2J mice. This model has been reported to respond well to the parent drugs of related compounds (Li, L. H.; et al. Invest. New Drugs 1991, 9, 137) and is a system that collaborators through the years have used to assess an extensive series of (+)-CBI-indole2 analogues. Although not published, these latter studies provided the foundation on which examination of 8 is based.
With use the dose range (10-100 μg/kg) and the dosing schedule (administered three times i.p. on days 1, 5, and 9) found suitable for related parent drugs including (+)-CBI-indole2 (3) (Boger, D. L.; et al. Bioorg. Med. Chem. Lett. 1991, 1, 115; Boger, D. L.; et al. Bioorg. Med. Chem. 1995, 3, 1429), the prodrug 8 was examined as is shown in the Table below.
DBA/2J mice were purchased from Jackson Laboratory (Bar Harbor, Me.) and housed in the animal facility at The Scripps Research Institute. L1210 tumor cells, originally isolated from DBA/2 mice, were cultured in DMEM medium containing 5% fetal calf serum. For tumor implantation, DBA/2J mice were i.p. injected with 1×10^5 L1210 cells at day 0.
Compounds 3 and 8 were formulated with 30% DMSO plus 0.1% glucose solution. Treatment doses of drugs (0, 10, 30, 100 µg/kg wt. of animal) were i.p. injected consecutively on day 1, 5 and 9. The study was performed with six mice per group. Tumor growth in the peritoneal cavity was monitored daily and the death of animals was recorded. If necessary, weights of animals were measured once a week. To date this monitoring of the animals has lasted 365 days.

[5] = tested on: L1210 murine leukemia implanted i.p. into DBA/2J mice; assay: In vivo antitumor activity, second site (neat DMSO, terminated after 120 days); design: species or system mouse; conditions: for Surviving Mice: still living after 120 days
Experimental: Confirming these observations, an analogous antitumor assessment was carried out independently at a second site utilizing a slightly different and harsher protocol for drug administration (neat DMSO vs 30% DMSO in 0.1% glucose).
In the above Table, the second column is the dose in mg/kg of body weight of the animal that is administered i.p. (into the intraperitoneal cavity) on days 1, 5, and 9. The surviving mice are the number of mice that are still living after 120 days and the experiment was then terminated.
An analogous study with 10 mice per group was performed at the University of Kansas with the distinction that the compounds were administered in neat DMSO (0, 10, 30, 60, 100 µg/kg wt. of animal) and the study was terminated after 120 days.

[6] = Chemical stability and reactivity of the N-acyl O-amino phenol derivatives; assay type: physicochemical; conditions: for stability to acidic conditions: TFA-CH2Cl2, 4 N HCl-EtOAc
[7] = Homo sapiens, NCI-H596, read-out: IC50 (nM) H596
[8] = unnatural enantiomer series, CBI-TMI derivatives, read-out: IC50 (nM) H596
[9] = Mus musculus, L1210, read-out: IC50 (nM) L1210, natural enantiomer series, CBI-TMI derivatives
[10] = unnatural enantiomer series, CBI-TMI derivatives, read-out: IC50 (nM) L1210
[11] = Homo sapiens, NCI-H460, read-out: IC50 (nM) H460
[12] = unnatural enantiomer series, CBI-TMI derivatives, read-out: IC50 (nM) H460
[13] = Homo sapiens, NCI-H596, natural enantiomer series, CBI-indole2 derivatives, read-out: IC50 (nM) H596
[14] = unnatural enantiomer series, CBI-indole2 derivatives, read-out: IC50 (nM) H596
[15] = 10 μg/kg i.p. days 1, 5, 9, neat DMSO
[16] = 30 μg/kg i.p. days 1, 5, 9, neat DMSO
[17] = 60 μg/kg i.p. days 1, 5, 9, neat DMSO
[18] = 100 μg/kg i.p. days 1, 5, 9, neat DMSO
[19] = unnatural enantiomer series, CBI-indole2 derivatives, read-out: IC50 (nM) L1210
[20] = unnatural enantiomer series, CBI-indole2 derivatives, read-out: IC50 (nM) H460

COc1cc2cc(C(=O)N3C[C@@H](CCl)c4c3cc(O)c3ccccc43)[nH]c2c(OC)c1OC [Compound 2, seco-CBI-TMI, reference compound]
fold lower sensitivity of H596 than H460 ([1]; H596 versus H460): 10 fold
IC50 [1, 7]: 5 nM
IC50 [1, 8]: 300 nM
IC50 [2, 9]: 0.04 nM
IC50 [2, 10]: 5 nM
IC50 [3, 11]: 0.5 nM
IC50 [3, 12]: 50 nM

O=C(Nc1ccc2[nH]c(C(=O)N3C[C@@H](CCl)c4c3cc(O)c3ccccc43)cc2c1)c1cc2ccccc2[nH]1 [Compound 3, seco-CBI-indole2, reference compound]
Mean Survival Period (MSP) ([4]; 10 μg/kg i.p. days 1, 5, 9): 34 days
Treated/Control (MSP × 100) ([4]; 10 μg/kg i.p. days 1, 5, 9): 170
Surviving Mice ([4]; 10 μg/kg i.p. days 1, 5, 9): 0/6
Mean Survival Period (MSP) ([4]; 30 μg/kg i.p. days 1, 5, 9): >115 days
Treated/Control (MSP × 100) ([4]; 30 μg/kg i.p. days 1, 5, 9): >580
Surviving Mice ([4]; 30 μg/kg i.p. days 1, 5, 9): 1/6
Mean Survival Period (MSP) ([4]; 100 μg/kg i.p. days 1, 5, 9): 125 days
Treated/Control (MSP × 100) ([4]; 100 μg/kg i.p. days 1, 5, 9): 625
Surviving Mice ([4]; 100 μg/kg i.p. days 1, 5, 9): 0/6
weight loss of treated animals [4]: weight loss that was evident
fate of surviving mice at day 90 ([4]; prolonged management beyond day 90): eventually expired due to drug administration related complications
IC50 [1, 13]: 2 nM
IC50 [1, 14]: 40 nM
Mean Survival Period (MSP) [5, 15]: >60 days
Treated/Control (MSP × 100) [5, 15]: >271
Surviving Mice ([5]; 10 μg/kg): 3/10
Mean Survival Period (MSP) [5, 16]: >65 days
Treated/Control (MSP × 100) [5, 16]: >295
Surviving Mice ([5]; 30 μg/kg): 3/10
Mean Survival Period (MSP) [5, 17]: >71 days
Treated/Control (MSP × 100) [5, 17]: >324
Surviving Mice ([5]; 60 μg/kg): 3/10
Mean Survival Period (MSP) [5, 18]: 11 days
Treated/Control (MSP × 100) [5, 18]: 52
Surviving Mice ([5]; 100 μg/kg): 0/10
IC50 ([2]; Mus musculus, L1210, natural enantiomer series, CBI-indole2 derivatives, read-out: IC50 (nM) L1210): 0.03 nM
IC50 [2, 19]: 0.7 nM
IC50 ([3]; Homo sapiens, NCI-H460, natural enantiomer series, CBI-indole2 derivatives, read-out: IC50 (nM) H460): 0.2 nM
IC50 [3, 20]: 6 nM

COc1cc2cc(C(=O)N3C[C@@H](CCl)c4c3cc(ONC(C)=O)c3ccccc43)[nH]c2c(OC)c1OC [Compound 5]
IC50 [1, 7]: 7 nM
IC50 [2, 9]: 0.3 nM
IC50 [3, 11]: 0.7 nM
stability on long term storage [6]: withstanding even long term storage effectively

COc1cc2cc(C(=O)N3C[C@@H](CCl)c4c3cc(ON(C(C)=O)C(=O)OC(C)(C)C)c3ccccc43)[nH]c2c(OC)c1OC [Compound 6]
IC50 [1, 7]: 5 nM
IC50 [2, 9]: 0.2 nM
IC50 [3, 11]: 0.6 nM
stability to acidic conditions [6]: surprisingly robust to acidic conditions

COc1cc2cc(C(=O)N3CC(CCl)c4c3cc(ON3C(=O)c5ccccc5C3=O)c3ccccc43)[nH]c2c(OC)c1OC (stereo not shown) [Compound 7]
IC50 [1, 8]: 6000 nM
IC50 [2, 10]: 60 nM
IC50 [3, 12]: 600 nM

COc1cc2cc(C(=O)N3C[C@@H](CCl)c4c3cc(ON3C(=O)c5ccccc5C3=O)c3ccccc43)[nH]c2c(OC)c1OC [Compound 7]
IC50 [1, 7]: 5 nM
IC50 [2, 9]: 0.06 nM
IC50 [3, 11]: 0.5 nM
stability to acidic conditions [6]: surprisingly robust to acidic conditions
stability on long term storage [6]: noticeably deteriorating over time

CC(C)(C)OC(=O)NOc1cc2c(c3ccccc13)[C@H](CCl)CN2C(=O)c1cc2cc(NC(=O)c3cc4ccccc4[nH]3)ccc2[nH]1 [Compound 8]
Mean Survival Period (MSP) ([4]; 10 μg/kg i.p. days 1, 5, 9): 25 days
Treated/Control (MSP × 100) ([4]; 10 μg/kg i.p. days 1, 5, 9): 120
Surviving Mice ([4]; 10 μg/kg i.p. days 1, 5, 9): 0/6
Mean Survival Period (MSP) ([4]; 30 μg/kg i.p. days 1, 5, 9): >145 days
Treated/Control (MSP × 100) ([4]; 30 μg/kg i.p. days 1, 5, 9): >730
Surviving Mice ([4]; 30 μg/kg i.p. days 1, 5, 9): 2/6
Mean Survival Period (MSP) ([4]; 100 μg/kg i.p. days 1, 5, 9): >310 days
Treated/Control (MSP × 100) ([4]; 100 μg/kg i.p. days 1, 5, 9): >1550
Surviving Mice ([4]; 100 μg/kg i.p. days 1, 5, 9): 5/6
weight loss of treated animals [4]: little or no weight loss
IC50 [1, 13]: 4 nM
Mean Survival Period (MSP) [5, 15]: >46 days
Treated/Control (MSP × 100) [5, 15]: >210
Surviving Mice ([5]; 10 μg/kg): 2/10
Mean Survival Period (MSP) [5, 16]: >51 days
Treated/Control (MSP × 100) [5, 16]: >232
Surviving Mice ([5]; 30 μg/kg): 2/10
Mean Survival Period (MSP) [5, 17]: >93 days
Treated/Control (MSP × 100) [5, 17]: >425
Surviving Mice ([5]; 60 μg/kg): 7/10
Mean Survival Period (MSP) [5, 18]: >63 days
Treated/Control (MSP × 100) [5, 18]: >288
Surviving Mice ([5]; 100 μg/kg): 3/10
efficacy compared with free drug 3 ([5]; deaths due to the disease, tumor counts, tumor volume): comparable or superior in terms of reducing deaths due to the disease, tumor counts, and tumor volume
toxicity of administration compared with free drug 3 ([5]; neat DMSO, 120 days): significantly less toxic than free drug 3
IC50 ([2]; Mus musculus, L1210, read-out: IC50 (nM) L1210, natural enantiomer series, CBI-indole2 derivatives): 0.05 nM
IC50 ([2]; Mus musculus, L1210, text range over L1210 and H460, natural enantiomer): 0.03 to 0.2 nM
potency compared with CBI-indole2 (3) ([2]; in each cell line examined): essentially equipotent
times more active than mitomycin C ([2]; natural enantiomer): 100-1000 times
fold less active than the natural enantiomer ([2]; unnatural enantiomer of prodrug 8): 10-100 fold
IC50 [3, 11]: 0.3 nM

CO[C@@]12[C@H](COC(N)=O)C3=C(C(=O)C(C)=C(N)C3=O)N1C[C@@H]1N[C@@H]12 [mitomycin C, reference compound]
IC50 ([1]; mitomycin-resistant H596 cell line, read-out: IC50): 5000 nM
IC50 ([1]; natural enantiomer series, CBI-TMI derivatives, read-out: IC50 (nM) H596): 5000 nM
IC50 ([1]; natural enantiomer series, CBI-indole2 derivatives, read-out: IC50 (nM) H596): 5000 nM
IC50 [1, 8]: 5000 nM
IC50 [1, 14]: 5000 nM
IC50 ([2]; natural enantiomer series, CBI-TMI derivatives, read-out: IC50 (nM) L1210): 40 nM
IC50 ([2]; natural enantiomer series, CBI-indole2 derivatives, read-out: IC50 (nM) L1210): 40 nM
IC50 ([2]; text range over L1210 and H460, read-out: IC50): 20 to 40 nM
IC50 [2, 10]: 40 nM
IC50 [2, 19]: 40 nM
IC50 ([3]; natural enantiomer series, CBI-TMI derivatives, read-out: IC50 (nM) H460): 20 nM
IC50 ([3]; natural enantiomer series, CBI-indole2 derivatives, read-out: IC50 (nM) H460): 20 nM
IC50 [3, 12]: 20 nM
IC50 [3, 20]: 20 nM
